Results from patent US12637481B2, “Boronic acid derivatives and therapeutic uses thereof” (QPEX BIOPHARMA, INC., priority 2020, dated 2026).
Where two headings read alike, the source gives them in different places.

Tests used:
[1] = Serum activation of prodrug, human serum; assay type: in vitro ADME; details: 50 μg/mL in human serum, room temperature, 1 hour, assayed for active drug by LC/MS/MS
Procedure: (§1) Serum activation: Compounds 1, 2, or II were solubilized in water and added to rat, dog, monkey, and human serum at a concentration of 50 μg/mL. The samples were incubated at room temperature for 1 hour then assayed for “active” drug content using an LC/MS/MS assay. Microsomal activation: Compounds 1, 2, or II were solubilized in water and added to rat, dog, monkey, and human liver microsomes at a concentration of 1 μM. The samples were incubated at room temperature for 1 hour then assayed for “active” drug content using an LC/MS/MS assay.

[2] = Serum activation of prodrug, rat serum; assay type: in vitro ADME; details: 50 μg/mL in rat serum, room temperature, 1 hour, assayed for active drug by LC/MS/MS
Procedure: as §1

[3] = Serum activation of prodrug, dog serum; assay type: in vitro ADME; details: 50 μg/mL in dog serum, room temperature, 1 hour, assayed for active drug by LC/MS/MS
Procedure: as §1

[4] = Serum activation of prodrug, monkey serum; assay type: in vitro ADME; details: 50 μg/mL in monkey serum, room temperature, 1 hour, assayed for active drug by LC/MS/MS
Procedure: as §1

[5] = Microsomal activation of prodrug, human liver microsomes; assay type: in vitro ADME; details: for half-life at 1 μM: 1 μM in human liver microsomes, room temperature, assayed for active drug by LC/MS/MS
Procedure: as §1

[6] = Microsomal activation of prodrug, rat liver microsomes; assay type: in vitro ADME; details: 1 μM in rat liver microsomes, room temperature, assayed for active drug by LC/MS/MS
Procedure: as §1

[7] = Microsomal activation of prodrug, dog liver microsomes; assay type: in vitro ADME; details: 1 μM in dog liver microsomes, room temperature, assayed for active drug by LC/MS/MS
Procedure: as §1

[8] = Microsomal activation of prodrug, monkey liver microsomes; assay type: in vitro ADME; details: 1 μM in monkey liver microsomes, room temperature, assayed for active drug by LC/MS/MS; read-out: Half-life monkey micorsomes
Procedure: as §1

Crystallinity = assay type: physicochemical
Permeability/transport = assay type: in vitro ADME
[9] = Dynamic vapor sorption (DVS), hygroscopicity; assay type: physicochemical; details: 25° C., 5 to 95% RH
Procedure: DVS analysis was carried out using a TA Instruments Q5000 Dynamic Vapor Sorption analyzer. The instrument was calibrated with standard weights and a sodium bromide standard for humidity. Approximately 20 mg of sample was loaded into a metal-coated quartz pan for analysis. The sample was analyzed at 25° C. with a maximum equilibration time of one hour in 10% relative humidity (RH) steps from 5 to 95% RH (adsorption cycle) and from 95 to 5% RH (desorption cycle). The movement from one step to the next occurred either after satisfying the equilibrium criterion of 0.01% weight change or, if the equilibrium criterion was not met, after one hour. The percent weight change values were calculated using Microsoft Excel®. The temperature for the DVS analysis can impact the outcome of the results.

half-life at 50 μg/mL [1]	half-life at 50 μg/mL [2]	half-life at 50 μg/mL [3]	half-life at 50 μg/mL [4]	half-life at 1 μM [5]	human microsomal activation, compared in words ([5]; compared with Compound 2 or Compound II)	half-life at 1 μM [6]	half-life at 1 μM [7]	half-life at 1 μM [8]	Crystallinity (Crystallinity)	Permeability/transport (Permeability/transport)	Crystallinity (Crystallinity; listed as drawing 11)	Human microsome activation t1/2 ([5]; human liver microsomes, as repeated in Table 2)	Hygroscopicity by dynamic vapor sorption (DVS) [9]	Structure (SMILES)
> 60 min	> 60 min	> 60 min	> 60 min	28 ± 2 min	significantly slower	3 ± 1 min	11 ± 1 min	2 ± 1 min	Yes	High				CCCC(=O)OCOC(=O)c1c(F)ccc2c1OB(O)[C@@H]1C[C@H]21 [Compound 1]
> 60 min	> 60 min	> 60 min	> 60 min	8 ± 1 min		3 ± 2 min		3 ± 2 min	not crystalline	High	No			CC(=O)OCOC(=O)c1c(F)ccc2c1OB(O)[C@@H]1C[C@H]21 [Compound 2]
> 60 min	> 60 min	> 60 min	> 60 min	9 ± 5 min		5 ± 3 min	23 ± 2 min	2 ± 1 min	Yes	High		9 + 5 min		CC(C)C(=O)OCOC(=O)c1c(F)ccc2c1OB(O)[C@@H]1C[C@H]21 [Compound II, (isobutyryloxy)methyl (1aR,7bS)-5-fluoro-2-hydroxy-1,1a,2,7b-tetrahydrobenzo[e]cyclopropa[c][1,2]oxaborinine-4-carboxylate]
													slightly hygroscopic	CC(C)C(=O)OCOC(=O)c1c(F)ccc2c1O[B-](O)(O)[C@@H]1C[C@H]21.[Na+] [crystalline Form A of Compound II′]
													moderately hygroscopic	CC(C)C(=O)OCOC(=O)c1c(F)ccc2c1O[B-](O)(O)[C@@H]1C[C@H]21.[Na+] [crystalline Form B of Compound II′]
